Test system: 242566-281-R-J2-PDC complex spheroid viability
Test: Anticancer human tumor 242566-281-R-J2-PDC patient-derived pancreatic carcinoma cell line growth inhibition [RAS]
Settings: for IC50: curve of first compound; for viability, T/C: stronger effect = lower value
Source text: RAS pathway inhibitors in Combinations in Complex Spheroids
A high-throughput screen of multi-cell type tumor spheroids was designed to identify active combinations of RAS pathway inhibitors and targeted small molecules. Complex spheroids include a stromal component modeled by human endothelial cells (HUVEC) and fibroblasts modeled by human mesenchymal stem cells (MSCs). The concentration ranges selected for each drug and investigational agent were based upon clinically achievable concentrations if the clinical Cmax of the agent was known.
Compounds. The drugs and investigational agents: abemaciclib (NSC768073), cobimetinib (NSC768068), divarasib (GDC6063, NSC841802), docetaxel (NSC628503), GDC-1971 (RLY-1971, NSC841576), gemcitabine (NSC613327), inavolisib (NSC800729), ipatasertib (NSC767898), KB-0742 (NSC834161), MRTX-1133 (NSC836407), osimertinib (NSC779217), RMC-4630 (NSC839698), RMC-6236 (NSC851965), RMC-6291 (NSC852671), Ro-3306 (NSC812927), sapanisertib (NSC764658), SN-38 (NSC673596), staurosporine (NSC755774), SY5609 (NSC837396), and tovorafenib (DAY101, NSC766906), were obtained from the National Cancer Institute (NCI) Developmental Therapeutics Program Chemical Repository. The FDA-approved anticancer drug set is available from the NCI Developmental Therapeutics Program. […] The stock solutions were prepared in dimethyl sulfoxide (DMSO, Sigma-Aldrich, St. Louis, MO, cat. D2650) at 800-fold the tested concentration and stored at -70 degrees C prior to their use. All drugs and investigational agents were tested over a range starting from a high concentration at or near the clinical Cmax and decreasing in half-log increments. If the clinical Cmax for an agent had not been determined, the highest concentration tested was 10 microM.
Cell Culture. All cells were maintained in an incubator at 37 degrees C and 5% CO2 with 95% humidity. The PDC lines were cultured according to standard operating procedures established by the NCI PDMR. All PDCs were thawed and cultured in Matrigel-coated flasks prepared with a working solution of 1X Ham's F-12 nutrient mix, without supplementation (Invitrogen, Waltham, MA, cat. 11765054), 100 U/mL penicillin-streptomycin (Invitrogen, cat. 15140122), and 2.5% Matrigel (Corning Inc., Corning, NY, cat. 354248) for the first three passages. The 362531-283-R-J2-PDC and 782815-120-R-J1-PDC lines were cultured in 6C/Colon 1B media, which includes advanced DMEM/F-12 (Thermo Fisher Scientific, cat. 12634028), 10 mM HEPES (Thermo Fisher Scientific, cat. 15630080), 1X GlutaMAX supplement (Thermo Fisher Scientific, cat. 35050061), 0.1 mg/mL primocin (InvivoGen, San Diego, CA, cat. ant-pm-2), 10% defined fetal bovine serum, heat inactivated (HyClone Laboratories Inc., Logan, UT, cat. SH30070.03HI), 50% L-WRN conditioned media (ATCC, cat. CRL-3276), 1.25 mM N-Acetyl-L-cysteine (Sigma-Aldrich, cat. A9165), 10 mM nicotinamide (Sigma-Aldrich, cat. N0636), 1X B-27 supplement (Thermo Fisher Scientific, cat. 17504044), 1X N-2 supplement (Thermo Fisher Scientific, cat. 17502048), 50 ng/mL human EGF (Thermo Fisher Scientific, cat. PHG0311), and 10 microM Y-27632 dihydrochloride (Tocris Bioscience, cat. 1254). The K12877-001-R-J1-PDC line was cultured in 6I media, which includes all 6C/Colon 1B media plus 10 ng/mL human FGF-10 (PeproTech, cat. 100-26), 1 ng/mL human FGF-2 (PeproTech, cat. 100-18B), 1 µM prostaglandin E2 (Tocris Bioscience, cat. 2296), […] hydrocortisone (Sigma-Aldrich, cat. H4001), and […] bovine insulin (Sigma-Aldrich, cat. I6634). The K86415-001-R-J1-PDC line was cultured in 6D media, which includes all 6C/Colon 1B media components minus the L-WRN conditioned media. The 485176-168-R4-J1-PDC was cultured in PANC media, which includes all 6C/Colon 1B media plus 100 ng/mL human FGF-10 (PeproTech, cat. 100-26), 500 nM SB-431542 (Selleckchem, cat. S1067), and 10 nM gastrin (Tocris Bioscience, cat. 3006). […]

[1] = second compound 0.0316 µM, first compound 0.0316 µM
[2] = second compound 0.0316 µM, first compound 0.1 µM
[3] = second compound 0.1 µM, first compound 0.0316 µM
[4] = second compound 0.1 µM, first compound 0.1 µM
[5] = second compound 0.316 µM, first compound 0.0316 µM
[6] = second compound 0.316 µM, first compound 0.1 µM
[7] = second compound 1 µM, first compound 0.0316 µM
[8] = second compound 1 µM, first compound 0.1 µM
[9] = second compound 3.16 µM, first compound 0.0316 µM
[10] = second compound 3.16 µM, first compound 0.1 µM
[11] = second compound 10 µM, first compound 0.0316 µM
[12] = second compound 10 µM, first compound 0.1 µM
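Also: spheroids exposed to compound for 7 days before readout.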
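For viability, T/C in this document: 100% = DMSO vehicle control wells.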

CC(C)n1nc(-c2ccc3oc(N)nc3c2)c2c(N)ncnc21 + C#Cc1c(F)ccc2cc(O)cc(-c3ncc4c(N5CC6CCC(C5)N6)nc(OCC56CCCN5CC(F)C6)nc4c3F)c12 gave an IC50 (second compound 0.0316 µM) of 67.5 nM, an IC50 (second compound 0.1 µM) of 9.86 nM and an IC50 (second compound 0.316 µM) of 6.58 nM. The IC50 (second compound 1 µM) was 3.24 nM, the IC50 (second compound 3.16 µM) was 0.918 nM and the IC50 (second compound 10 µM) was 0.639 nM. For the same molecule, the viability, T/C (second compound 0.0316 µM, first compound 0.000316 µM) was 91.9%, the viability, T/C (second compound 0.0316 µM, first compound 0.001 µM) was 95.8% and the viability, T/C (second compound 0.0316 µM, first compound 0.00316 µM) was 77.1%. The viability, T/C (second compound 0.0316 µM, first compound 0.01 µM) was 61.3%, the viability, T/C [1] was 50.5% and the viability, T/C [2] was 49.3%. It also gave a viability, T/C (second compound 0.1 µM, first compound 0.000316 µM) of 81.4%, a viability, T/C (second compound 0.1 µM, first compound 0.001 µM) of 80.2% and a viability, T/C (second compound 0.1 µM, first compound 0.00316 µM) of 70.3%. For the same molecule, the viability, T/C (second compound 0.1 µM, first compound 0.01 µM) was 49.9%, the viability, T/C [3] was 40.6% and the viability, T/C [4] was 40%. It also gave a viability, T/C (second compound 0.316 µM, first compound 0.000316 µM) of 78.3%, a viability, T/C (second compound 0.316 µM, first compound 0.001 µM) of 73.5% and a viability, T/C (second compound 0.316 µM, first compound 0.00316 µM) of 57.9%. It also gave a viability, T/C (second compound 0.316 µM, first compound 0.01 µM) of 44.5%, a viability, T/C [5] of 38% and a viability, T/C [6] of 31.3%. For the same molecule, the viability, T/C (second compound 1 µM, first compound 0.000316 µM) was 57.9%, the viability, T/C (second compound 1 µM, first compound 0.001 µM) was 64% and the viability, T/C (second compound 1 µM, first compound 0.00316 µM) was 50.4%. For the same molecule, the viability, T/C (second compound 1 µM, first compound 0.01 µM) was 29.4%, the viability, T/C [7] was 28.7% and the viability, T/C [8] was 27.8%. The viability, T/C (second compound 3.16 µM, first compound 0.000316 µM) was 63.4%, the viability, T/C (second compound 3.16 µM, first compound 0.001 µM) was 46.9% and the viability, T/C (second compound 3.16 µM, first compound 0.00316 µM) was 39.2%. It also gave a viability, T/C (second compound 3.16 µM, first compound 0.01 µM) of 30.7%, a viability, T/C [9] of 24.1% and a viability, T/C [10] of 19.8%. It also gave a viability, T/C (second compound 10 µM, first compound 0.000316 µM) of 55%, a viability, T/C (second compound 10 µM, first compound 0.001 µM) of 48% and a viability, T/C (second compound 10 µM, first compound 0.00316 µM) of 37.9%. The viability, T/C (second compound 10 µM, first compound 0.01 µM) was 29.1%, the viability, T/C [11] was 21.7% and the viability, T/C [12] was 17.8%.
In the case of C[C@@H](NC(=O)c1ncnc(N)c1Cl)c1ncc(C(=O)Nc2cc(C(F)(F)F)c(Cl)cn2)s1 + C#Cc1c(F)ccc2cc(O)cc(-c3ncc4c(N5CC6CCC(C5)N6)nc(OCC56CCCN5CC(F)C6)nc4c3F)c12, the IC50 (second compound 0.0316 µM) is reported as > 10000 nM, the IC50 (second compound 0.1 µM) is reported as > 10000 nM and the IC50 (second compound 0.316 µM) is reported as > 10000 nM. For the same molecule, the IC50 (second compound 1 µM) was > 10000 nM, the IC50 (second compound 3.16 µM) was > 10000 nM and the IC50 (second compound 10 µM) was > 10000 nM. For the same molecule, the viability, T/C [1] was 93.3%, the viability, T/C [2] was 136% and the viability, T/C (second compound 0.0316 µM, first compound 0.316 µM) was 93.4%. For the same molecule, the viability, T/C (second compound 0.0316 µM, first compound 1 µM) was 85.8%, the viability, T/C (second compound 0.0316 µM, first compound 3.16 µM) was 97.9% and the viability, T/C (second compound 0.0316 µM, first compound 10 µM) was 95.3%. It also gave a viability, T/C [3] of 91.3%, a viability, T/C [4] of 102% and a viability, T/C (second compound 0.1 µM, first compound 0.316 µM) of 90.9%. It also gave a viability, T/C (second compound 0.1 µM, first compound 1 µM) of 88.4%, a viability, T/C (second compound 0.1 µM, first compound 3.16 µM) of 69.9% and a viability, T/C (second compound 0.1 µM, first compound 10 µM) of 88.8%. It also gave a viability, T/C [5] of 75.9%, a viability, T/C [6] of 84.1% and a viability, T/C (second compound 0.316 µM, first compound 0.316 µM) of 60.8%. It also gave a viability, T/C (second compound 0.316 µM, first compound 1 µM) of 75.4%, a viability, T/C (second compound 0.316 µM, first compound 3.16 µM) of 68.1% and a viability, T/C (second compound 0.316 µM, first compound 10 µM) of 78.4%. It also gave a viability, T/C [7] of 67.2%, a viability, T/C [8] of 74.5% and a viability, T/C (second compound 1 µM, first compound 0.316 µM) of 66.6%. The viability, T/C (second compound 1 µM, first compound 1 µM) was 62.1%, the viability, T/C (second compound 1 µM, first compound 3.16 µM) was 64.2% and the viability, T/C (second compound 1 µM, first compound 10 µM) was 71.4%. The viability, T/C [9] was 63.4%, the viability, T/C [10] was 66.7% and the viability, T/C (second compound 3.16 µM, first compound 0.316 µM) was 63.7%. For the same molecule, the viability, T/C (second compound 3.16 µM, first compound 1 µM) was 53.9%, the viability, T/C (second compound 3.16 µM, first compound 3.16 µM) was 62.2% and the viability, T/C (second compound 3.16 µM, first compound 10 µM) was 66.2%. It also gave a viability, T/C [11] of 63.3%, a viability, T/C [12] of 64% and a viability, T/C (second compound 10 µM, first compound 0.316 µM) of 46.3%. The viability, T/C (second compound 10 µM, first compound 1 µM) was 55%, the viability, T/C (second compound 10 µM, first compound 3.16 µM) was 60.5% and the viability, T/C (second compound 10 µM, first compound 10 µM) was 63.8%.

Source: PubChem BioAssay AID2060910 (Molecular Pharmacology Branch, DTP, NCI, 2025)
